Laboratory results from ChEMBL document CHEMBL2331174, “Inhibition of notch pathway signaling: a one compound mission to treat cancer” (ACS Med Chem Lett, 2013).

How the values were obtained:
[1] = Inhibition of gamma-secretase mediated cleavage of Notch 1 in human MOLT-4 cells assessed as nuclear accumulation of Notch 1 intracellular domain (N1ICD) after 24 hrs by ELISA; assay type: cell-based; conditions: MOLT-4, 24 h
[2] = Inhibition of gamma-secretase mediated cleavage of Notch 1 in human MOLT-3 cells assessed as nuclear accumulation of Notch 1 intracellular domain (N1ICD) after 24 hrs by ELISA; assay type: cell-based; conditions: MOLT-3, 24 h
[3] = Inhibition of gamma-secretase mediated cleavage of Notch 1 in human Jurkat cells assessed as nuclear accumulation of Notch 1 intracellular domain (N1ICD) after 24 hrs by ELISA; assay type: cell-based
[4] = Inhibition of gamma-secretase mediated cleavage of Notch 1 in human K562 cells assessed as nuclear accumulation of Notch 1 intracellular domain (N1ICD) after 24 hrs by ELISA; assay type: cell-based; conditions: K562, 24 h
[5] = Inhibition of gamma-secretase mediated cleavage of Notch 1 in human SUP-T1 cells assessed as nuclear accumulation of Notch 1 intracellular domain (N1ICD) after 24 hrs by ELISA; assay type: cell-based; conditions: SUP-T1, 24 h
[6] = Inhibition of gamma-secretase mediated cleavage of Notch 1 in human CCRF-CEM cells assessed as nuclear accumulation of Notch 1 intracellular domain (N1ICD) after 24 hrs by ELISA; assay type: cell-based
[7] = Inhibition of gamma-secretase mediated cleavage of Notch 1 in human U-87-MG cells assessed as nuclear accumulation of Notch 1 intracellular domain (N1ICD) after 24 hrs by ELISA; assay type: cell-based, U-87MG ATCC
[8] = Inhibition of gamma-secretase mediated cleavage of Notch 1 in human MDA-MB-231 cells assessed as nuclear accumulation of Notch 1 intracellular domain (N1ICD) after 24 hrs by ELISA; assay type: cell-based; conditions: MDA-MB-231, 24 h
[9] = Inhibition of gamma-secretase mediated cleavage of Notch 1 in human DLD1 cells assessed as nuclear accumulation of Notch 1 intracellular domain (N1ICD) after 24 hrs by ELISA; assay type: cell-based; conditions: DLD-1, 24 h
[10] = Inhibition of gamma-secretase mediated cleavage of Notch 1 in human HCT 116 cells assessed as nuclear accumulation of Notch 1 intracellular domain (N1ICD) after 24 hrs by ELISA; assay type: cell-based; conditions: HCT-116, 24 h
[11] = Inhibition of gamma-secretase mediated cleavage of Notch 1 in human HEL 92.1.7 cells assessed as nuclear accumulation of Notch 1 intracellular domain (N1ICD) after 24 hrs by ELISA; assay type: cell-based; conditions: HEL 92.1.7, 24 h
[12] = Inhibition of gamma-secretase mediated cleavage of Notch 1 in human A375 cells assessed as nuclear accumulation of Notch 1 intracellular domain (N1ICD) after 24 hrs by ELISA; assay type: cell-based; conditions: A-375, 24 h
[13] = Inhibition of gamma-secretase mediated cleavage of Notch 1 in human SW480 cells assessed as nuclear accumulation of Notch 1 intracellular domain (N1ICD) after 24 hrs by ELISA; assay type: cell-based; conditions: SW480, 24 h
[14] = Inhibition of gamma-secretase mediated cleavage of Notch 1 in human BxPC3 cells assessed as nuclear accumulation of Notch 1 intracellular domain (N1ICD) after 24 hrs by ELISA; assay type: cell-based; conditions: BXPC-3, 24 h
[15] = Inhibition of gamma-secretase mediated cleavage of Notch 1 in human MIAPaCa2 cells assessed as nuclear accumulation of Notch 1 intracellular domain (N1ICD) after 24 hrs by ELISA; assay type: cell-based; conditions: MIA PaCa-2, 24 h
[16] = Inhibition of gamma-secretase mediated cleavage of Notch 1 in human A2780 cells assessed as nuclear accumulation of Notch 1 intracellular domain (N1ICD) after 24 hrs by ELISA; assay type: cell-based; conditions: A2780, 24 h
[17] = Inhibition of gamma-secretase mediated cleavage of transfected mouse Notch 1 (1703-2183) harboring N-terminal 23 aminoacid signal peptide sequence in human HEK293deltaE12 cells assessed as nuclear accumulation of Notch 1 intracellular domain (N1ICD) after 24 hrs by fluorescence cellular imaging analysis; assay type: cell-based

IC50 [1]: 740 pM
IC50 [2]: 610 pM
IC50 [3]: 5950 pM
IC50 [4]: 740 pM
IC50 [5]: 1240 pM
IC50 [6]: 760 pM
IC50 [7]: 280 pM
IC50 [8]: 500 pM
IC50 [9]: 980 pM
IC50 [10]: 720 pM
IC50 [11]: 230 pM
IC50 [12]: 480 pM
IC50 [13]: 100 pM
IC50 [14]: 390 pM
IC50 [15]: 710 pM
IC50 [16]: 1030 pM
IC50 [17]: 410 pM
Compound: C[C@H](NC(=O)CCC(F)(F)F)C(=O)N[C@@H]1C(=O)N(CCO)c2ncccc2-c2ccccc21 [CRENIGACESTAT]
